ChEMBL document CHEMBL4024718, “Design and synthesis of quinazolinones as EGFR inhibitors to overcome EGFR resistance obstacle” (Bioorg Med Chem, 2017)

Assays:
[1] = test system: A549; assay: Antiproliferative activity against human A549 cells harboring wild type EGFR after 48 hrs by SRB assay; type: cell-based; details: A549, 48 h
[2] = test system: NCI-H1975; assay: cells; type: functional, cell-based; details: Homo sapiens, NCI-H1975, 48 h
[3] = target: Epidermal growth factor receptor (Homo sapiens, UniProt P00533); assay: Inhibition of human EGFR preincubated for 5 mins with substrate followed by ATP addition measured after 30 mins by HTRF method; type: ADME
Epidermal growth factor receptor (Homo sapiens, UniProt P00533), sequence (P00533 whole entry): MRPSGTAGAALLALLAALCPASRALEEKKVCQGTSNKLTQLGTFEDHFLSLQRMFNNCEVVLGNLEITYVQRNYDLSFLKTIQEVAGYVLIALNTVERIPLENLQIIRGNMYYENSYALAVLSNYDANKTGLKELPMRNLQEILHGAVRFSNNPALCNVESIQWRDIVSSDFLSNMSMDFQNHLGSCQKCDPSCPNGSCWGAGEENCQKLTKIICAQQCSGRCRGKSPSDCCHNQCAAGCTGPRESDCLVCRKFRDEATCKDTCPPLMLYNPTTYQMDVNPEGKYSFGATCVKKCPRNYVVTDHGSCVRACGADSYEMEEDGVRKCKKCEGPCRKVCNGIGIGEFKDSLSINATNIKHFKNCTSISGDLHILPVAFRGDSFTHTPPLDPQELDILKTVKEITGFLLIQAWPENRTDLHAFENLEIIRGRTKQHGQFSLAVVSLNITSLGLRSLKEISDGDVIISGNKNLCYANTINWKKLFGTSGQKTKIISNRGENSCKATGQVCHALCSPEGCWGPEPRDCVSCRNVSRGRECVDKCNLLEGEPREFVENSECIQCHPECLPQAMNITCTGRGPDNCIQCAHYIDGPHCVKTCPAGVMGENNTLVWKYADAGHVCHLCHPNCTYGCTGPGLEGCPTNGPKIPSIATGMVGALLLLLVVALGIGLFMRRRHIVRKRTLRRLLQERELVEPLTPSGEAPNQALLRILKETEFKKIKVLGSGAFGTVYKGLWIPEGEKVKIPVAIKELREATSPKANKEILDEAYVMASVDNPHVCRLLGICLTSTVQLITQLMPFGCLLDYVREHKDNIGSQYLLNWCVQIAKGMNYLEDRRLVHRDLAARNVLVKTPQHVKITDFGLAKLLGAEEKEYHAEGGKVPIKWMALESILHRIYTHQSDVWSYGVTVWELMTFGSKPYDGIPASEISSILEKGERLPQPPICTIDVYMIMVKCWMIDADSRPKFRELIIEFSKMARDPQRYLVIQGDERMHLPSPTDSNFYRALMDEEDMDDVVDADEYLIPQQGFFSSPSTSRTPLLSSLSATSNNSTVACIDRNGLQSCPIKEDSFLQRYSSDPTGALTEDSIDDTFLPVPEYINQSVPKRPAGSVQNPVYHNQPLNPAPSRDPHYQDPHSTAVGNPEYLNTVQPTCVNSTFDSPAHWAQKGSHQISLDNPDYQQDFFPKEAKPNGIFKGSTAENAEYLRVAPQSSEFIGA

[4] = test system: HT-29; assay: Antiproliferative activity against non-special gene type human HT-29 cells after 48 hrs by SRB assay; type: cell-based; details: HT-29, 48 h
[5] = target: Epidermal growth factor receptor (Homo sapiens, UniProt P00533, T790M)
Epidermal growth factor receptor (Homo sapiens, UniProt P00533, T790M), sequence (P00533 25-1210 T790M limits assumed): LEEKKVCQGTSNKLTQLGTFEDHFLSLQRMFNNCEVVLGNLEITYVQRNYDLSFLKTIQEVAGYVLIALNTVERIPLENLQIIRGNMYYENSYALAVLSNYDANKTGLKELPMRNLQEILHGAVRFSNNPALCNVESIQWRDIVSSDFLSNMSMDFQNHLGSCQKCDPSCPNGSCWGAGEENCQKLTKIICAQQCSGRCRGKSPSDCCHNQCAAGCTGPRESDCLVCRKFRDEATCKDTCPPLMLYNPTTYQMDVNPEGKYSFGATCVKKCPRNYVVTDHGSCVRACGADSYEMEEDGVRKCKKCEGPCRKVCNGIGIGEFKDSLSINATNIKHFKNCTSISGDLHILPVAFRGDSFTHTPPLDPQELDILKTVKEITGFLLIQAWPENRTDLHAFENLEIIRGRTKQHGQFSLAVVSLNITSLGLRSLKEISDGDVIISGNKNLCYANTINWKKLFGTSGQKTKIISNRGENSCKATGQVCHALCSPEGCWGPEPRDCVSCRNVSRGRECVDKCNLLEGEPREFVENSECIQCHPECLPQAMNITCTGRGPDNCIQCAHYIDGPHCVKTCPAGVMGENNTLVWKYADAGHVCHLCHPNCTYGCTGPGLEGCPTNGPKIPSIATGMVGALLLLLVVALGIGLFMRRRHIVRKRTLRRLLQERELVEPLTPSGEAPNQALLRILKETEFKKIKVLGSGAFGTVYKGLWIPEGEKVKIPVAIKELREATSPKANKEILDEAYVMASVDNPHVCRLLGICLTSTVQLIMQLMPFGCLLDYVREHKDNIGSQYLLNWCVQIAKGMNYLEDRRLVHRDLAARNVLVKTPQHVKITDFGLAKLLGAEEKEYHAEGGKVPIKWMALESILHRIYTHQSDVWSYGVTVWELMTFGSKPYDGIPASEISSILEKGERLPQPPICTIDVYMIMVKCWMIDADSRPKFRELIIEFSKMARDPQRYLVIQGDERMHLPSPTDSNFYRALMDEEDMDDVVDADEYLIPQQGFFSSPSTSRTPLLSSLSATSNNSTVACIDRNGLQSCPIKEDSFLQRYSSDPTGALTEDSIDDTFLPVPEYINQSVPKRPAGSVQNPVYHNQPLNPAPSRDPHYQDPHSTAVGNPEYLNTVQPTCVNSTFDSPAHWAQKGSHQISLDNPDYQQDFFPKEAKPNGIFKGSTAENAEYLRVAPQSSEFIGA

[6] = target: Aurora kinase A (Homo sapiens) (UniProt O14965); assay: Inhibition of N-terminal His6-tagged recombinant full-length human Aurora A expressed in Sf21 insect cells at 3 uM relative to control
Aurora kinase A (Homo sapiens), sequence (O14965 whole entry): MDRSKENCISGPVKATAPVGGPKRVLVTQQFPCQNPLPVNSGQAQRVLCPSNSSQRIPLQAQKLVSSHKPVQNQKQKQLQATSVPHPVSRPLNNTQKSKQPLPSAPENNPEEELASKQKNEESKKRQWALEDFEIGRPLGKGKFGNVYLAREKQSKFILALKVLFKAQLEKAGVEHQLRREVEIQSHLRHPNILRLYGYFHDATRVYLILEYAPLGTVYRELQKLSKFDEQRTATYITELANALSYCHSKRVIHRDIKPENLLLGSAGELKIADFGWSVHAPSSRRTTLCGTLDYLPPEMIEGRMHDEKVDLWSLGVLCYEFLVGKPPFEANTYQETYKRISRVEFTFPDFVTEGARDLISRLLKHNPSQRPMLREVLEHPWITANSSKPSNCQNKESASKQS

[7] = target: Tyrosine-protein kinase SYK (Homo sapiens) (UniProt P43405); assay: Inhibition of recombinant full length N-terminal His6-tagged human SYK expressed in baculovirus infected Sf21 insect cells at 3 uM relative to control
[8] = target: Hepatocyte growth factor receptor (Homo sapiens) (UniProt P08581); assay: Inhibition of N-terminal His6-tagged recombinant human Met (974 to end residues) expressed in baculovirus infected Sf21 insect cells at 3 uM relative to control
[9] = target: Tyrosine-protein kinase JAK2 (Homo sapiens) (UniProt O60674); assay: Inhibition of C-terminal His6-tagged recombinant human JAK2 (808 to end residue) expressed in baculovirus infected Sf21 insect cells at 3 uM relative to control
[10] = target: 5'-AMP-activated protein kinase catalytic subunit alpha-1 (Homo sapiens) (UniProt Q13131); assay: Inhibition of full length recombinant human C-terminal His-tagged AMPKalpha1 expressed in Spodoptera frugiperda insect cells at 3 uM relative to control
5'-AMP-activated protein kinase catalytic subunit alpha-1 (Homo sapiens), sequence (Q13131 whole entry, looked up): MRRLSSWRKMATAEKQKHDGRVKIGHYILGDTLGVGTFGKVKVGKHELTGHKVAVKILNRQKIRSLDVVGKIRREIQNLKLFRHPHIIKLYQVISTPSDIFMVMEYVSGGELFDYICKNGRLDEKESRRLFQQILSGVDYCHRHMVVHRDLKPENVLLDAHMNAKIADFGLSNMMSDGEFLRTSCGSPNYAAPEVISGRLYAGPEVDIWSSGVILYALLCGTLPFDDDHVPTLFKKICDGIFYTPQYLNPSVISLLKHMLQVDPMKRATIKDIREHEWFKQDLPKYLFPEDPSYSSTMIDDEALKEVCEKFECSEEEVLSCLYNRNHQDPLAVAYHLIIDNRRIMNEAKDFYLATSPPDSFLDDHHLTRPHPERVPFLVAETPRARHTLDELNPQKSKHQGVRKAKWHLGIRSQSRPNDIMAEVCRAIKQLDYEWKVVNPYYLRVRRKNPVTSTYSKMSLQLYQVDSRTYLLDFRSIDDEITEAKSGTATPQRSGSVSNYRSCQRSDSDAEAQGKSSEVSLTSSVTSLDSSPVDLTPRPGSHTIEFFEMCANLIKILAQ

[11] = target: Receptor-type tyrosine-protein kinase FLT3 (Homo sapiens) (UniProt P36888); assay: Inhibition of N-terminal GST tagged recombinant human Flt3 (564 to end residues) at 3 uM relative to control
[12] = target: EGFR (epidermal growth factor receptor) kinase domain (Homo sapiens, UniProt P00533); assay: Inhibition of N-terminal GST-tagged human EGFR kinase domain (696 to end residues) expressed in baculovirus infected Sf21 insect cells at 3 uM relative to control
[13] = target: Cyclin-dependent kinase 1/cyclin B1 (Homo sapiens) (UniProt P06493+P14635); assay: Inhibition of C-terminal His6-tagged human full length Cdk1/N-terminal GST-tagged human full length Cyclin B expressed in baculovirus infected Sf21 insect cells at 3 uM relative to control
[14] = target: Fibroblast growth factor receptor 1 (Homo sapiens) (UniProt P11362); assay: Inhibition of N-terminal GST-tagged recombinant human FGFR1 (456 to 765 residues) expressed in baculovirus infected Sf21 insect cells at 3 uM relative to control
[15] = target: Vascular endothelial growth factor receptor 2 (Homo sapiens) (UniProt P35968); assay: Inhibition of recombinant human VEGFR-2 at 3 uM relative to control
[16] = target: Tyrosine-protein kinase Blk (Homo sapiens) (UniProt P51451); assay: Inhibition of human N-terminal His6 tagged recombinant full-length human Blk expressed in Sf21 insect cells at 3 uM relative to control
[17] = target: Vascular endothelial growth factor receptor 1 (Homo sapiens) (UniProt P17948); assay: Inhibition of recombinant human VEGFR-1 expressed in Spodoptera frugiperda insect cells at 3 uM relative to control
Vascular endothelial growth factor receptor 1 (Homo sapiens), sequence (P17948 whole entry): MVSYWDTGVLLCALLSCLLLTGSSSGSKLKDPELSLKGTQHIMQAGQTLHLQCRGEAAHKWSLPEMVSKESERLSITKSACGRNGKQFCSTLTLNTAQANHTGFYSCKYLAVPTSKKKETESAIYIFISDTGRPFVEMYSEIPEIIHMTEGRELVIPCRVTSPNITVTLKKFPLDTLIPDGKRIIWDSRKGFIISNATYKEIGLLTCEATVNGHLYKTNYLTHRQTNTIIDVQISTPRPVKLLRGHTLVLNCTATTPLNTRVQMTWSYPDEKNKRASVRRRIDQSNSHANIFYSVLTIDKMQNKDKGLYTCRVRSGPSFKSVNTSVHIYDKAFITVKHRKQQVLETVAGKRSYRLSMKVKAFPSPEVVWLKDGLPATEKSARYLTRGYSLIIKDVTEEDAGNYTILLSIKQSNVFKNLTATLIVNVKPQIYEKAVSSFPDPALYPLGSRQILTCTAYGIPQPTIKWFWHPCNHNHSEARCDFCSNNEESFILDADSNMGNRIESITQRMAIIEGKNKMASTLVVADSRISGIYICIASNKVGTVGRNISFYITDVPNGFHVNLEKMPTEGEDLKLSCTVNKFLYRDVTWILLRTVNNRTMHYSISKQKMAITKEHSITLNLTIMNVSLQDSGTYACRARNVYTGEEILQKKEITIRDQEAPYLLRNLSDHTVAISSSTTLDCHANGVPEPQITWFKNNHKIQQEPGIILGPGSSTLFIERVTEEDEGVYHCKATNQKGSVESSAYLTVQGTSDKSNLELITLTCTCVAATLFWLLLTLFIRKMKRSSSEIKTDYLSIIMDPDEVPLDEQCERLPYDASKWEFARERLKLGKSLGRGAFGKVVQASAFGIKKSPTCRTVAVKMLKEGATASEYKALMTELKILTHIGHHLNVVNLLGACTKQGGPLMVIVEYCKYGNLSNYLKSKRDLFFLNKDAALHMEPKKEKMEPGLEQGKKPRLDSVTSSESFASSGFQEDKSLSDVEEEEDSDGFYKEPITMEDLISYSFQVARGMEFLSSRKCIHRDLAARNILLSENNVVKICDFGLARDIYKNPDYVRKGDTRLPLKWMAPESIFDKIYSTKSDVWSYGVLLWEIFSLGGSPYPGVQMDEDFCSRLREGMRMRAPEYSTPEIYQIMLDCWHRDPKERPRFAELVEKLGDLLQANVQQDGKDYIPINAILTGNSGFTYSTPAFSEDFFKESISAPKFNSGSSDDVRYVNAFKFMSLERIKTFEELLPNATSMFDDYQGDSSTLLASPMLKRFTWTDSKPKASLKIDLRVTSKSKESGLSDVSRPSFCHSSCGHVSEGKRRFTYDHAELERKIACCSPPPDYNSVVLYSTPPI

[18] = target: Mast/stem cell growth factor receptor Kit (Homo sapiens) (UniProt P10721); assay: Inhibition of N-terminal GST tagged recombinant human c-Kit (544 to end residues) expressed in baculovirus infected Sf21 insect cells at 3 uM relative to control
[19] = target: Insulin receptor (Homo sapiens) (UniProt P06213); assay: Inhibition of N-terminal 6His-tagged recombinant human insulin receptor (1005 to 1310 residues) expressed in baculovirus infected Sf21 insect cells at 3 uM relative to control
[20] = target: Tyrosine-protein kinase ABL1 (Homo sapiens) (UniProt P00519); assay: Inhibition of N-terminal His6-tagged recombinant human Abl (27 to end residues) expressed in baculovirus infected Sf21 insect cells at 3 uM relative to control
[21] = target: Insulin-like growth factor 1 receptor (Homo sapiens) (UniProt P08069); assay: Inhibition of N-terminal 6His-tagged recombinant human IGF-1R (959 to end residues) expressed in baculovirus infected Sf21 insect cells at 3 uM relative to control
[22] = target: Focal adhesion kinase 1 (Homo sapiens) (UniProt Q05397); assay: Inhibition of N-terminal 6His-tagged recombinant human FAK (411 to 686 residues) expressed in baculovirus infected Sf21 insect cells at 3 uM relative to control
[23] = target: LKB1-STRAD-MO25 complex (Homo sapiens) (UniProt Q15831+Q7RTN6+Q9Y376); assay: Inhibition of recombinant full-length N-terminal 6-His-tagged human LKB1/GST-tagged MO25alpha/GST-tagged STRADalpha expressed in SF21 cells at 3 uM relative to control
[24] = target: Dual specificity mitogen-activated protein kinase kinase 1 (Homo sapiens) (UniProt Q02750); assay: Inhibition of recombinant human N-terminal GST-fused MEK1 expressed in Escherichia coli at 3 uM relative to control
Dual specificity mitogen-activated protein kinase kinase 1 (Homo sapiens), sequence (Q02750 whole entry, the tested form may be a part): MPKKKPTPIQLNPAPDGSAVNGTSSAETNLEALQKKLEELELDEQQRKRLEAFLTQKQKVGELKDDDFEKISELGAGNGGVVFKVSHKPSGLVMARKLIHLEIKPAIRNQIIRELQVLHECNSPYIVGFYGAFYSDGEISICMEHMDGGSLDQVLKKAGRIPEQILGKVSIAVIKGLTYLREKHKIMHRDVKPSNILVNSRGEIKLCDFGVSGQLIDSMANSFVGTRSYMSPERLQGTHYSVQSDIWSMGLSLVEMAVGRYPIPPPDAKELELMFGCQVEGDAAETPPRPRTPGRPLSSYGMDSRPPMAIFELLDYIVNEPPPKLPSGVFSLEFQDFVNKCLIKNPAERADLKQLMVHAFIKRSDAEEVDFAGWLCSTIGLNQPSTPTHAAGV

| Compound | IC50 [1] [nM] | IC50 [2] [nM] | IC50 [3] [nM] | IC50 [4] [nM] | IC50 [5] [nM] | also measured |
| --- | --- | --- | --- | --- | --- | --- |
| C=CC(=O)Nc1cccc(Oc2nc(Nc3ccc(N4CCN(C)CC4)cc3OC)ncc2Cl)c1 | 1870 |  |  |  |  |  |
| O=C(Nn1c(-c2ccccc2)nc2ccccc2c1=O)c1ccc(Br)cc1 | 523 | 810 | 420 | 1150 | 780 |  |
| NCCn1c(-c2ccccc2)nc2cc(Cl)ccc2c1=O | 2450 | 378 | 2110 | 428 | 287 |  |
| O=C(Nc1cc(Cl)ccc1C(=O)Nc1ccc(F)cc1)c1ccccc1 | 17400 | 14400 |  | 3360 |  |  |
| Cc1nnc(-n2c(-c3ccccc3)nc3cc(Cl)ccc3c2=O)s1 | 3790 | 760 |  | 21200 |  |  |
| O=c1c2ccc(Cl)cc2nc(-c2ccccc2)n1-c1nnc(C2CC2)s1 | 717 | 129 | 530 | 732 | 102 |  |
| O=c1c2ccccc2nc(-c2ccccc2)n1-c1ccc(F)c(Cl)c1 | 5420 | 4890 |  | 6120 |  |  |
| O=C(Nc1cc(Cl)ccc1C(=O)NCc1ccccc1)c1ccccc1 | 1570 | 1670 |  | 4800 |  |  |
| Nc1ccccc1-n1c(-c2ccccc2)nc2cc(Cl)ccc2c1=O | 18300 | 4870 |  | 50000 |  |  |
| O=c1c2ccccc2nc(-c2ccccc2)n1-c1nnc(-c2ccccc2Cl)s1 | 100000 | 5230 | 78200 | 32500 | 7230 |  |
| O=c1c2ccc(Cl)cc2nc(-c2ccccc2)n1-c1cccc(Cl)c1 | 5300 | 2450 |  | 4500 |  |  |
| O=c1c2ccc(Cl)cc2nc(-c2ccccc2)n1-c1cccnc1 | 3330 | 2450 |  | 3800 |  |  |
| COc1ccc(-n2c(-c3ccccc3)nc3cc(Cl)ccc3c2=O)cc1 | 2870 | 2880 |  | 3920 |  |  |
| O=c1c2ccccc2nc(-c2ccccc2)n1-c1nnc(C2CC2)s1 | 3020 | 2380 |  | 3460 |  |  |
| CC(=O)c1ccccc1-n1c(-c2ccccc2)nc2cc(Cl)ccc2c1=O | 50000 | 846 | 34300 | 50000 | 720 |  |
| O=c1c2ccc(Cl)cc2nc(-c2ccccc2)n1-c1nnc(-c2ccccc2)s1 | 2090 | 213 | 1680 | 2720 | 1120 |  |
| COc1ccc(-c2nnc(-n3c(-c4ccccc4)nc4cc(Cl)ccc4c3=O)s2)cc1 | 390 | 31 | 320 | 388 | 21 | inhibition [6]: 0%; inhibition [7]: 0%; inhibition [8]: 0%; inhibition [9]: 0%; inhibition [10]: 0%; inhibition [11]: 0%; inhibition at 3 µM [12]: 78%; inhibition [13]: 0%; inhibition [14]: 0%; inhibition [15]: 42%; inhibition [16]: 0%; inhibition [17]: 0 to 34%; inhibition [18]: 0%; inhibition [19]: 0%; inhibition [20]: 0%; inhibition [21]: 10%; inhibition [22]: 0%; inhibition [23]: 0%; inhibition [24]: 0% |
